Consider eight compounds from paper PMC10726441, “Discovery of Tumor-Targeted 6-Methyl Substituted Pemetrexed and Related Antifolates with Selective Loss of RFC Transport” (ACS Medicinal Chemistry Letters, 2023).

Entries after “also recorded” stand apart in the source; their conditions may differ.

In assay [1] the test system is IGROV1 epithelial ovarian cancer cells. The experiment in a line: Cell proliferation assay, IGROV1 tumor cells. The conditions noted are these: for IC50: Homo sapiens, IGROV-1, 96 h, 0-1000 nM, mean (standard error), 3-5 experiments; for potency toward IGROV1 cells compared with IOSE 7576 cells (in words): IGROV1 vs IOSE 7576. The assay is classed as cell-based, human. An excerpt: For the tumor cells, except the des-methyl compound 4 with IGROV1 cells, all compounds were inhibitory. […]
Reagents for biological studies. Leucovorin [(6R,S) 5-formyl tetrahydrofolate] and methotrexate (MTX) was provided by the Drug Development Branch, National Cancer Institute, Bethesda, MD. Other chemicals were obtained from commercial sources in the highest available purities. Pemetrexed (PMX; 1) [N-{4-[2- (2-amino-3,4-dihydro-4-oxo-7H-pyrrolo[2,3-d]pyrimidin-5-yl)ethyl]benzoyl-L-glutamic acid] (Alimta) was purchased from LC Laboratories (Woburn, MA). The syntheses of compounds 2 and 3 were previously described.7, 8 Additional chemicals were purchased from commercial sources in the highest available purities. […]
KB nasopharyngeal carcinoma cells were obtained from the American Type Culture Collection (Manassas, VA) and IGROV1 (NCI-IGROV1) (passage 5) ovarian adenocarcinoma cells13 were obtained from the Division of Cancer Treatment and Diagnosis, National Cancer Institute (Frederick, MD). Normal ovary cells immortalized with SV40 (IOSE 7576)14 were obtained from the Canadian OvCaRe Cell Bank […]
(§1) (Vancouver, B.C). IGROV1, KB and IOSE 7576 cells were cultured in complete FF-RPMI with 10% fetal bovine serum and 100 units/mL penicillin/100 μg/mL streptomycin, and 2 mM L-glutamine. Cell lines were tested for Mycoplasma by PCR using a Mycloplasma testing kit (Venor™ GeM Mycoplasma Detection Kit, Sigma). Frozen stocks were generated from authenticated Mycoplasma-free cultures.
(§2) For cell proliferation assays, CHO, KB, NCI-IGROV1 and IOSE 7576 cells were plated in 96-well dishes at densities ranging from 2500-5000 cells/well in 200 μL media and treated with a range of inhibitors spanning 0-1000 nM. Experiments with RT16, D4, IGROV1, IOSE 7576 and KB cells used folate-free RPMI 1640 (FF RPMI) media with 10% dialyzed fetal bovine serum and 100 units/mL penicillin/100 μg/mL streptomycin, supplemented with 2 nM leucovorin and 2 mM L-glutamine. FR-mediated drug uptake was assessed in parallel incubations including 200 nM folic acid. For R2/PCFT4, PC43-10 and R2 CHO cells, the medium was FF-RPMI supplemented with 10% dialyzed fetal bovine serum, 100 units/mL penicillin/100 μg/mL streptomycin, 25 nM leucovorin and 2 mM L-glutamine.
(§3) Cells were treated over a 96 h period at 37° C with 5% CO2 and relative cell numbers quantified using the CellTiter-blue cell viability assay (Promega, Madison, WI) and a fluorescence plate reader. Raw data were exported to Excel for analysis and the results were plotted using Graphpad Prism 6.0. Determinations of IC50s were made […]
(§4) assays have been previously described.7, 8, 11, 12, 15-20 […]
7, 8, 11, 12, 15-20 Inhibitory effects of the novel analogs on de novo thymidylate biosynthesis and de novo purine nucleotide biosynthesis were tested by incubating drugs with thymidine (10 μM) and adenosine (60 μM), respectively. Incubation with glycine (130 µM) was used to assess the potential involvement of mitochondrial C1 targeted agents.15 To identify multiple metabolic targets, metabolite additions were added in combination.7, 8, 11, 12, 15-19 Finally, to distinguish targeting between the folate-dependent purine biosynthetic enzymes glycinamide ribonucleotide formyltransferase (GARFTase) and 5-aminoimidazole-4-carboxamide (AICA) ribonucleotide formyltransferase (AICARFTase), co-incubation experiments were performed using AICA hydrochloride (320 μM). 7, 8, 11, 12, […]
Statistics. The biological data reflect at least three experimental replicates. All statistical comparisons were performed using unpaired t-tests. Biological data are presented as mean values +/- standard errors using data without transformation.

Assay [2] deals with KB tumor cells; thymidylate and de novo purine nucleotide biosynthesis. The assay is described as follows: Metabolite protection experiments in KB cells (thymidine, adenosine, glycine, AICA). The class given is cell-based, human. The conditions noted are these: for targeted pathway from metabolite protection (in words): thymidine 10 μM, adenosine 60 μM, glycine 130 μM, AICA 320 μM. As for the experimental part:
To identify the targeted pathways/enzymes of these pyrrolo[2,3-d]pyrimidine compounds (1, 2, 4–8), in vitro growth inhibition assays were performed with KB tumor cells in glycine-, adenosine-, and thymidine-free media without additions or in the presence of thymidine (10 μM), adenosine (60 μM), or glycine (130 μM) (both singly and in various combinations; Figure 4).[18],[23]−[25],[28]−[31],[42],[44],[45] For de novo purine biosynthesis inhibitors, protection was also tested with AICA (320 μM), which is metabolized to AICA ribonucleotide (substrate for the AICARFTase reaction, thus circumventing GARFTase).
Figure 4 Metabolite protection experiments. […] Cell densities were measured with a fluorescence assay[25] and a fluorescence plate reader. Results were normalized to cell densities in the absence of drug. Results shown are mean values plus/minus standard errors from triplicate experiments. Experimental details are described in the Supporting Information, and the methods have been previously published.[18],[23]−[25],[28]−[31],[42],[44]
as §1, §2, §3, §4

In general, IC50 refers to the concentration that inhibits the measured activity by half. Take `Nc1nc2[nH]cc(CCc3ccc(C(=O)N[C@@H](CCC(=O)O)C(=O)O)cc3)c2c(=O)[nH]1` [Compound 1, reference compound]: in assay [1], the IC50 worked out at 71 nM and the “potency toward IGROV1 cells compared with IOSE 7576 cells (in words)” value was “more active toward IGROV1 cells”. In addition, in assay [2], the “targeted pathway from metabolite protection (in words)” value (“targeted pathway” below) is “inhibited both thymidylate and purine nucleotide biosynthesis”.
With `Nc1nc2[nH]cc(CCCc3ccc(C(=O)N[C@@H](CCC(=O)O)C(=O)O)cc3)c2c(=O)[nH]1` [Compound 2], in assay [1], the IC50 worked out at 52.7 nM and the “potency toward IGROV1 cells compared with IOSE 7576 cells (in words)” value was “more potent toward IOSE 7576 cells than IGROV1 cells”. The “protection by glycine / mitochondrial C1 metabolism (in words)” value in assay [2] (glycine 130 μM added to adenosine and thymidine) is “addition of glycine provided greater protection than did adenosine and thymidine alone; also recorded: inhibition of mitochondrial C1 metabolism was also suggested”. Also, the “targeted pathway” value in assay [2] was “inhibited both thymidylate and purine nucleotide biosynthesis”.
For `Nc1nc2[nH]cc(CCc3ccc(C(=O)N[C@@H](CCC(=O)O)C(=O)O)s3)c2c(=O)[nH]1` [Compound 3], in assay [1], the IC50 is 320 nM and the “potency toward IGROV1 cells compared with IOSE 7576 cells (in words)” value was “more potent toward IOSE 7576 cells than IGROV1 cells”.
On to `Nc1nc2[nH]cc(CCc3ccc(C(=O)N[C@@H](CCC(=O)O)C(=O)O)c(F)c3)c2c(=O)[nH]1` [Compound 4], for which, in assay [1], the “inhibition of IGROV1 cells (in words)” value is “inactive” and the IC50 is > 1000 nM. In assay [2], the “targeted pathway” value was “inhibited both thymidylate and purine nucleotide biosynthesis”.
As to `Cc1[nH]c2nc(N)[nH]c(=O)c2c1CCc1ccc(C(=O)N[C@@H](CCC(=O)O)C(=O)O)cc1` [Compound 5], the IC50 in assay [1] stood at 9.31 nM.
For the compound `Cc1[nH]c2nc(N)[nH]c(=O)c2c1CCCc1ccc(C(=O)N[C@@H](CCC(=O)O)C(=O)O)cc1` [Compound 6], in assay [1], the “inhibition of IGROV1 cells (in words)” value is reported as “modestly inhibitory” and the IC50 is 750 nM.
As to `Cc1[nH]c2nc(N)[nH]c(=O)c2c1CCc1ccc(C(=O)N[C@@H](CCC(=O)O)C(=O)O)s1` [Compound 7], the IC50 in assay [1] stood at 2.52 nM. Moreover, in assay [1] (IGROV1 cells, relative to compound 3), the “greater potency than the corresponding 6-desmethyl analogue 3, IGROV1 cells” value was determined as 127 fold.
As for `Cc1[nH]c2nc(N)[nH]c(=O)c2c1CCc1ccc(C(=O)N[C@@H](CCC(=O)O)C(=O)O)c(F)c1` [Compound 8], the IC50 in assay [1] is 134 nM.
